{"source": "patent US20070203244A1", "about": "“INHIBITORS OF MEMBRANE TYPE-1 MATRIX METALLOPROTEINASE FOR THE TREATMENT OF INSULIN-DEPENDENT DIABETES MELLITUS” (priority 2006, published 2007)", "molecules": {"B1": {"name": "TIMP-3: native tissue inhibitor of MMP, SEQ ID NO:4 (protein)", "chain": "MTPWLGLIVLLGSWSLGDWGAEACTCSPSHPQDAFCNSDIVIRAKVVGKKLVKEGPFGTLVYTIKQMKMYRGFTKMPHVQYIHTEASESLCGLKLEVNKYQYLLTGRVYDGKMYTGLCNFVERWDQLTLSQRKGLNYRYHLGCNCKIKSCYYLPCFVTSKNECLWTDMLSNFGYPGYQSKHYACIRQKGGYCSWYRGWAPPDKSIINATDP"}, "B2": {"name": "TIMP-4: native tissue inhibitor of MMP, 22 kDa, SEQ ID NO:6 (protein, UniProt Q99727 30-224, looked up)", "Metalloproteinase inhibitor 4": "CSCAPAHPQQHICHSALVIRAKISSEKVVPASADPADTEKMLRYEIKQIKMFKGFEKVKDVQYIYTPFDSSLCGVKLEANSQKQYLLTGQVLSDGKVFIHLCNYIEPWEDLSLVQRESLNHHYHLNCGCQITTCYTVPCTISAPNECLWTDWLLERKLYGYQAQHYVCMKHVDGTCSWYRGHLPLRKEFVDIVQP"}}, "key": {"MMP-9": {"molecular_target": "MMP-9 (Homo sapiens, UniProt P14780)", "sequence (P14780 94-707, species assumed)": "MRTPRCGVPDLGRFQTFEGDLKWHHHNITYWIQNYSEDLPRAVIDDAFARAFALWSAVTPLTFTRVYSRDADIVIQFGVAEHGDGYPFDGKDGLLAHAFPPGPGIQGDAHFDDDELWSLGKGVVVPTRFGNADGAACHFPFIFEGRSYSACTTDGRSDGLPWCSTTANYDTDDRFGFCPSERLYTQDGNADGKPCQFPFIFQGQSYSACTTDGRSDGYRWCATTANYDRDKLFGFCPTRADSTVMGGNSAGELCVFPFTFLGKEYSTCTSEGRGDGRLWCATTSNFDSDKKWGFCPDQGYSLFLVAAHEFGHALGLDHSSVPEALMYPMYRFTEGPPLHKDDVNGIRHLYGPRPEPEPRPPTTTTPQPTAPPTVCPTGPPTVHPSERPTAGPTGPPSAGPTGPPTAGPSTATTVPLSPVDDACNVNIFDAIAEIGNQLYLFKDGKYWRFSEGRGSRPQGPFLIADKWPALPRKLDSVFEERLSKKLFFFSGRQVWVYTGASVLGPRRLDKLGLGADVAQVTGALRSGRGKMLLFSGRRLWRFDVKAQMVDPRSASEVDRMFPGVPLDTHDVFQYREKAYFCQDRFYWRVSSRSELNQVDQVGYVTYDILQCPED", "conditions": "preclinical studies; cited from earlier work"}, "MMP-2": {"molecular_target": "T1, MMP-2 (Homo sapiens, UniProt P08253)", "T1 sequence (P08253 110-660)": "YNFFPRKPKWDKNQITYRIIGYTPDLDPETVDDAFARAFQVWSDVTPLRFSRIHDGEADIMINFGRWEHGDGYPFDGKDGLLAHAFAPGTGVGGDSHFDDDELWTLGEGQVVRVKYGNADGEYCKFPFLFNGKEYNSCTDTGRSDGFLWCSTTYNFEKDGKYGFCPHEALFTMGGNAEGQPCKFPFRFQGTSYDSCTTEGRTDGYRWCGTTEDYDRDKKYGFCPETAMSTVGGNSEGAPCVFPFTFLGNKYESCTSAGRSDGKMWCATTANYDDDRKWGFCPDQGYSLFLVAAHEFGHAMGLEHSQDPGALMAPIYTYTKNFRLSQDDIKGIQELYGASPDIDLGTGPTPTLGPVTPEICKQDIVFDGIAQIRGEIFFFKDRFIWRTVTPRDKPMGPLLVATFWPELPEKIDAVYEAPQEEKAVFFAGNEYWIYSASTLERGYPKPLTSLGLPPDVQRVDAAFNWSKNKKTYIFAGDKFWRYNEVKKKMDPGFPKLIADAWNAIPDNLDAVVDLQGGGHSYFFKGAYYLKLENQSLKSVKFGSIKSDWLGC", "conditions": "preclinical studies; cited from earlier work"}, "[1]": {"conditions": "cited from earlier work"}, "NOD mice": {"tested_on": "NOD mice", "experiment": "Adoptively transferred diabetes in NOD mice (IS-CD8+ cells)", "type": "in vivo", "conditions": "Example 3: i.p. 30 min prior to cells, then every other day; inhibitor diluted to 4 mg/ml", "method": "IS-CD8^+ cells were labeled with DiI and then injected in NOD mice. In 24 h, the labeled cells with their intra-islet location were counted in the cryostat sections of the entire pancreas. […] IS-CD8^+ cells were injected in NOD mice. […] PBS containing […] DMSO was used as a vehicle control. The onset of diabetes was monitored daily by measuring urine glucose levels with the Diastix reagent strips. Mice with urine glucose levels of ≧2000 mg/dl for 3 consecutive days were considered diabetic. * and **, p=0.02 and p=0.015 by Fisher's test, respectively.\nMice were monitored for 21 days. […] The onset of diabetes was identified by assessing urine glucose levels with Diastix® strips (Bayer). Mice with urine glucose levels of >2000 mg/dl for 3 consecutive days were considered diabetic. […] The level of glucose in the urine closely follows that in the blood (Traisman, H. S., and Greenwood, R. D. (1973)). The measurement of glucose in urine is a widely accepted method to follow the development of diabetes in NOD mice (Pomerleau, D. P., et al. (2005))."}, "MT1-MMP": {"molecular_target": "T2, MT1-MMP (Mus musculus, UniProt P53690)", "T2 construct": "Endogenous MT1-MMP is latent in non-adherent IS-CD8^+ cells; endogenous in cells; host or cells: IS-CD8+ T cells (TGNFC8 clone, NOD mouse), adherent to gelatin", "experiment": "MT1-MMP-dependent MMP-2 activation in adherent IS-CD8+ cells, gelatin zymography", "type": "cell-based, NOD mouse", "parameters": "inhibition of MMP-2 activation: dose or concentration left out as unconfirmed", "method": "MT1-MMP-dependent MMP-2 Activation and Gelatin Zymography—IS-CD8^+ cells (1×10^6) were either allowed to adhere for 4 h in serum-free unsupplemented Click's medium to plastic coated with 2% gelatin or kept in solution. Under these experimental conditions, the vast majority of cells became attached to gelatin. In 4 h, media samples (30 μl each) were withdrawn and analyzed by gelatin zymography (Deryugina, E. I., et al. (2001)) to identify the proteolytic activity and the activation status of MMP-2 naturally synthesized by IS-CD8^+ cells. Where indicated, cells were supplemented with external purified pro-MMP-2 (20 ng). Pro-MMP-2 was isolated from a conditioned medium of p2AHT2A72 cells derived from an HT1080 fibrosarcoma cell line sequentially transfected with the E1A and MMP-2 cDNAs (Strongin, A. Y., et al. (1995)).\nMT1-MMP-dependent MMP-2 activation and gelatin zymography—IS-CD8^+ cells (1×10^6) were either allowed to adhere for 4 h in serum-free unsupplemented Click's medium to the plastic coated with 2% gelatin or kept in solution. In 18 h, media samples (30 μl each) were withdrawn and analyzed by gelatin zymography (Deryugina, E. I., et al. (2001)) to identify the proteolytic activity and the activation status of MMP-2 naturally synthesized by IS-CD8^+ cells. […] Pro-MMP-2 was isolated from a conditioned medium of p2AHT2A72 cells derived from an HT1080 fibrosarcoma cell line sequentially transfected with the E1A and MMP-2 cDNAs (Strongin, A. Y., et al. (1995))."}, "IS-CD8+ T cells": {"tested_on": "IS-CD8+ T cells", "experiment": "Homing of DiI-labeled IS-CD8+ T cells into the pancreatic islets of NOD mice", "type": "in vivo", "conditions": "Example 3: inhibitor i.p. before cells; 24 h; SB-3CT and EGCG at much higher concentrations than AG3340", "method": "Fluorescent Tracing and Morphometric Analysis—For trafficking studies, IS-CD8^+ T cells were incubated at 1×10^7 cells/ml for 30 min at 37° C. in the dark in complete Click's medium containing 5% fetal calf serum and 0.0075 mg/ml of the fluorescent dye 1,1′-didodecyl-3,3,3′,3′-tetramethylindocarbocyanine perchlorate (DiI; Molecular Probes, Eugene, Oreg.). After incubation, the cells were washed three times with phosphatebuffered saline to remove excess DiI. Labeled IS-CD8^+ cells (1×10^7 cells) were injected intravenously in 0.2 ml of phosphate-buffered saline into irradiated (725 rads, 24 h in advance) NOD mice. Mice were sacrificed 24 h after injection of DiI-labeled cells. The spleen and the pancreata were excised and fixed in 0.1 M periodate-lysine-paraformaldehyde phosphate buffer. The organs were next sucrose-saturated, freeze-molded in OCT compound (Sakura Finetek Inc., Torrance, Calif.), and freeze-sectioned. 7-μm-thick cryostat sections of the entire pancreas were prepared at 60-μm intervals using a Leica CM1900 cryotom. Distribution of DiI-labeled CD8^+ cells within the islets was examined using a fluorescent microscope. At least 100 individual islets per mouse (4-5 mice/experimental group) were examined. The characteristic morphology of the islets is easily identified on the cryosections. DiI-labeled cells were counted within the area relevant to each individual islet (see FIG. 3 for a representative image; the islet-relevant area is depicted by the solid white line, and the islet boundaries are shown by the white dotted line). The position of each IS-CD8^+ labeled cell was determined relative to the islet boundary. The labeled cells localized within the islet boundary were considered to be “inside,” whereas the labeled cells adjacent to the islet but outside of the islet boundary were considered to be “at the entrance.” This method has been described in substantial detail (Savinov, A. Y., et al. (2003), and Savinov, A. Y., et al. (2001), which are herein incorporated by reference in their entirety for their teaching of these methods).\nFluorescent tracing and morphometric analysis—For trafficking studies, IS-CD8^+ T cells were incubated at 1×10^7 cells/ml for 30 min at 37° C. in the dark in the complete Click's medium containing 5% FCS and 0.0075 mg/ml of fluorescent dye 1,1′-didodecyl-3,3,3′,3′-tetramethylindocarbocyanine perchlorate (DiI; Molecular Probes). After incubation, the cells were washed three times with PBS to remove excess DiI. Labeled IS-CD8^+ cells (1×10^7 cells) were intravenously injected in 0.2 ml of PBS into irradiated (725 Rad, 24 h in advance) NOD mice. Mice were sacrificed 24 h after injection of DiI-labeled cells. […] In 24 h, the spleen and the pancreata were excised and fixed in 0.1 M periodate-lysine-paraformaldehyde phosphate buffer. The organs were next sucrose-saturated, freeze-molded in OCT compound (Sakura Finetek Inc.) and freeze-sectioned. 7-μm-thick cryostat sections of the entire pancreas were prepared at the 60 μm intervals using a Leica CM1900 cryotom. Distribution of DiI-labeled CD8^+ cells within the islets was examined using a fluorescent microscope. At least 100 individual islets per mouse, 4-5 mice per each experimental group, were examined. The characteristic morphology of the islets is easily identified on the cryosections. DiI-labeled cells were counted within the area relevant to each individual islet. The position of each IS-CD8^+ labeled cell was determined relative to the islet boundary. […]"}, "[2]": {"tested_on": "CD44 shedding in IS-CD8+ cells", "experiment": "CD44 shedding in adherent IS-CD8+ cells, Western blotting", "type": "cell-based, NOD mouse", "method": "Western Blotting—IS-CD8^+ cells were surface biotinylated for 1 h at 4° C. with 0.1 mg/ml sulfo-NHS-LC-biotin (Pierce, Rockford, Ill.). Following washes to remove biotin, cells were co-incubated for 2 h with MT1-MMP-CAT in serum-free, unsupplemented Click's medium. The cells were then lysed with 50 mM N-octyl-β-D-glucopyranoside in phosphate-buffered saline supplemented with 1 mM CaCl2, 1 mM MgCl2, and protease inhibitor mixture containing phenylmethylsulfonyl fluoride (1 mM) and aprotinin, pepstatin, and leupeptin (1 μg/ml each). Biotin-labeled CD44 was captured from the cell lysate and from the medium aliquots on streptavidin-agarose beads. The captured samples were examined by Western blotting with the CD44 (clone IM7.8.1) antibody to determine the released, soluble, CD44 ectodomain in the medium samples and the residual, membrane-anchored, cellular CD44 in the cell lysates.\nWestern blotting—IS-CD8^+ cells were surface biotinylated for 1 hr at 4° C. with 0.1 mg/ml of sulfo-NES-LC-biotin (Pierce). Following washes to remove biotin, the labeled cells were allowed to adhere in serum-free medium to plastic coated with 2% type I collagen/gelatin for 4 h or were kept in suspension. Under these experimental conditions, the vast majority of the cells became attached to gelatin. […] The cells were then lysed with 50 mM N-octyl-β-D-glucopyranoside in PBS supplemented with 1 mM CaCl2, 1 mM MgCl2, and protease inhibitor cocktail containing phenylmethylsulfonyl fluoride (1 mM) and aprotinin, pepstatin, and leupeptin (1 μg/ml each). Biotin-labeled CD44 was captured from the cell lysate and from the medium aliquots on streptavidine-Agarose beads. The captured samples were examined by Western blotting with the CD44 (clone IM7.8.1) antibody to determine the released, soluble, CD44 ectodomain in the medium samples and the residual, membrane-anchored, cellular CD44 in the cell lysates."}, "[3]": {"conditions": "human TIMP proteins; cited from earlier work"}}}
{"molecule": "CNC(=O)[C@@H](NC(=O)[C@H](CC(C)C)NC(=O)[C@@H](S)CCN1C(=O)N(C)C(C)(C)C1=O)C(C)(C)C", "note": "[BMS-275291]", "values": [{"measurement": "inhibitory activity against MMP-9", "setting": "MMP-9", "value": "potent inhibitory activity"}, {"measurement": "inhibitory activity against MMP-2", "setting": "MMP-2", "value": "potent inhibitory activity"}]}
{"molecule": "COc1ccc(S(=O)(=O)N(Cc2cccnc2)[C@@H](C(=O)NO)C(C)C)cc1", "note": "[CGS-27023A]", "values": [{"measurement": "plasma concentrations relative to in vitro IC50s for MMP-2,-3 and -9", "setting": "[1]; clinically tolerable doses", "value": "severalfold greater"}, {"measurement": "time for which plasma concentrations above the in vitro IC50s for MMP-2,-3 and -9 were sustained after dosing", "setting": "[1]; clinically tolerable doses", "value": "> 10", "unit": "h"}, {"measurement": "dose at which major toxic effects (cutaneous and musculoskeletal toxicity) were encountered", "setting": "[1]; oral, continuous dosing, 150 to 600 mg in divided doses", "value": "exceeding 300 mg twice a day"}]}
{"molecule": "O=C(O[C@@H]1Cc2c(O)cc(O)cc2O[C@@H]1c1cc(O)c(O)c(O)c1)c1cc(O)c(O)c(O)c1", "note": "[EGCG, (−)-epigallocatechin 3-gallate]", "values": [{"measurement": "delay of the transferred diabetes onset", "setting": "NOD mice", "value": "no delay"}, {"measurement": "inhibition of MMP-2 activation", "setting": "MT1-MMP; Example 3: EGCG", "value": "partial inhibition"}, {"measurement": "homing of IS-CD8+ cells inside the islets", "setting": "IS-CD8+ T cells", "value": "did not affect"}, {"measurement": "effect on CD44 proteolysis", "setting": "[2]; Example 3: EGCG 500 mM", "value": "without any significant effect"}]}
{"molecule": "O=S(=O)(CC1CS1)c1ccc(Oc2ccccc2)cc1", "note": "(stereo not drawn) [SB-3CT]", "values": [{"measurement": "delay of the transferred diabetes onset", "setting": "NOD mice", "value": "no delay"}, {"measurement": "activation of MMP-2 in adherent cells", "setting": "MT1-MMP; Example 3: inhibitors added for 18 h", "value": "no effect"}, {"measurement": "homing of IS-CD8+ cells inside the islets", "setting": "IS-CD8+ T cells", "value": "did not affect"}, {"measurement": "shedding of CD44 in adherent cells", "setting": "[2]; Example 3", "value": "no effect"}]}
{"molecule": "TIMP-1: native tissue inhibitor of MMP; a poor inhibitor of MT1-MMP", "values": [{"measurement": "isoelectric point", "setting": "[3]", "value": 8.00}, {"measurement": "activation of MMP-2 in adherent cells", "setting": "MT1-MMP; Example 2: AG3340 50 μM, TIMP-1 and TIMP-2 100 ng/ml, 18 h", "value": "no effect"}, {"measurement": "shedding of CD44 in adherent cells", "setting": "[2]; Example 2: AG3340 50 μM, TIMP-1 and TIMP-2 100 ng/ml", "value": "minor but noticeable inhibition"}]}
{"molecule": "B1", "values": [{"measurement": "isoelectric point", "setting": "[3]", "value": 9.04}]}
{"molecule": "B2", "values": [{"measurement": "isoelectric point", "setting": "[3]", "value": 7.34}]}
